Assay results taken from patent US9254274B2, “Method of treating Tourette'S disorder with GABA-aminotransferase inactivators” (CATALYST PHARMACEUTICAL PARTNERS, priority 2012, dated 2016).
Entries after “also recorded” stand apart in the source; their conditions may differ. Where two headings read alike, the source gives them in different places.

Key:
[1] = tested on: patient diagnosed with Tourettes's Disorder (TD); test: Clinical observations: single patient with Tourette's Disorder treated with vigabatrin; format: in vivo, human
Excerpt: The following instruments will be used to assess diagnosis and symptom severity at baseline: • a) SCID-CT. A clinician administered, semi-structured diagnostic interview specifically developed for use in clinical trials with adults • b) Yale Global Tic Severity Scale (Y-GTSS) (Leckman et al, 1989). The primary outcome measure for tic assessment is this investigator administered Global Severity score (sum of Total Tic score and TD Impairment score) on the Y-GTSS. It includes measures of tic frequency and severity and is widely used in drug efficacy trials involving TD. • c) Yale-Brown Obsessive Compulsive Scale (Y-BOCS) (Goodman et al, 1989). The Y-BOCS is a primary outcome measure of OCD symptoms and is rated by a study investigator. • d) Clinical Global Impression for Tics (Tics-CGI) (Leckman et al, 1988), for ADHD (ADHD-CGI), and for OCD (OCD-CGI) (Guy et al, 1976). Rated by the investigator. Global Improvement (1=very much improved, to 7=very much worse) scales. At intake, only the severity can be rated. In subsequent assessments, both severity and improvement will be rated. A CGI improvement of 1 (very much) or 2 (much) improved is considered to be an acceptable response to acute treatment as is a clinical severity rating of ≦3. • e) DSM-IV-TR Global Assessment of Functioning Scale (GAF) (APA DSM-IV-TR, 2000). The investigator-rated GAF ranges from 1-100, with scores over 70 indicating normal adjustment, and below 60, clinically significant impairment. • f) Hamilton Depression Scale. A clinician-rated scale used as a screening and diagnostic tool and a measure of severity of […] in adults, which has been widely used in clinical trials of young adults with MDD. • g) Hamilton Anxiety Scale. A clinician-rated scale used as a screening and diagnostic tool and a measure of severity of […] in adults, which has been widely used in clinical trials of young adults with MDD. • h) Conners Adult ADHD Rating Scale (CAARS:SL) Systematic self-report of ADHD symptoms in adults. • i) Adverse Events Form (SMURF) is completed at every visit to document all adverse events that occur during the study. • j) Demographics: Demographics and family history information are collected systematically during the Screening/Baseline Phase. • k) Vital signs, Weight and Height (pulse, blood pressure, weight, and height) will be assessed at every visit. • l) Abnormal Involuntary Movement Scale (AIMS) An investigator rated scale of abnormal involuntary movements including tardive dyskinesia. • m) Opthalmological evaluation including visual fields testing Visit 2 (Treatment Week 0):
A single patient diagnosed with Tourettes's Disorder (TD) was treated with vigabatrin for a period of about ten months. Subject is a person with a longstanding history of severe TD. Their course was characterized by typical attenuation of symptoms in late adolescence/early adulthood with an unusual, but not rare, acceleration of symptoms to lifetime peak severity in the last several years. This exacerbation occurred in temporal association with several significant life stressors. Marking the severity of their TD course was a history of fractured rib secondary to a truncal tic, inability to take public transportation, and inability to find steady work in their profession. […] They were on tetrabenazine at the time of referral to the study, but their response to this medication was limited by depressed mood symptoms and moderate fatigue.
Baseline Yale Global Tic Severity Score (YGTSS) score indicated a total motor score of 22, and a total vocal score of 17, for a total tic score (TTS) of 39 and a tic-related impairment score of 40; global severity was 79. Global Assessment of Functioning (GAF) score at baseline was 50.

[2] = molecular target: neuronal GABA transporter (Mus musculus, UniProt P31648); settings: Ludwig et al 1999; cited from earlier work
brain GABA levels = settings: human, single dose; cited from earlier work
[3] = molecular target: γ-aminobutyric acid aminotransferase (GABA-AT) (Sus scrofa, UniProt P80147); settings: cited from earlier work
Chain of γ-aminobutyric acid aminotransferase (GABA-AT) (P80147 29-500): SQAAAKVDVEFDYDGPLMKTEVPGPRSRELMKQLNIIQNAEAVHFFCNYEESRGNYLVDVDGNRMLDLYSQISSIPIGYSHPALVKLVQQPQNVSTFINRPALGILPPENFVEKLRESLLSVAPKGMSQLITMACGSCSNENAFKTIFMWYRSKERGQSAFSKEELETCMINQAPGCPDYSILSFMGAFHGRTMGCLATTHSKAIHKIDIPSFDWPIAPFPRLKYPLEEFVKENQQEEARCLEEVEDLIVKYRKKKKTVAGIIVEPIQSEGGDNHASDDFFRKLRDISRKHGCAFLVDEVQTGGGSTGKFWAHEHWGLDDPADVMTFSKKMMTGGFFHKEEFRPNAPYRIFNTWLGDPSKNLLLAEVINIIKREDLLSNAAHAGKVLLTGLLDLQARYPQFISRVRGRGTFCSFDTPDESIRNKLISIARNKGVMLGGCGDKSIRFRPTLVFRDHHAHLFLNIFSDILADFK

## C=CC(N)CCC(=O)O (stereo not drawn) [vigabatrin, γ-vinyl GABA]
[1]
  tic severity, overall clinical outcome: clinically significant and meaningful improvement in their tic severity
[1]; GVG 2 grams, week 2, baseline TTS 39
  YGTSS total tic score (TTS): 31
[1]; GVG 3 grams, week 3, baseline TTS 39
  YGTSS total tic score (TTS): 27
[1]; GVG 3 grams, week 4, baseline TTS 39
  YGTSS total tic score (TTS): 24
[1]; GVG 3 grams, week 5, baseline TTS 39
  YGTSS total tic score (TTS): 21
[1]; GVG 3 grams, week 7, baseline TTS 39
  YGTSS total tic score (TTS): 24
[1]; GVG up to 3 grams, listed as GVG
  adverse effect: minimal: tiredness and fatigue starting at 2 grams, which gradually attenuated; also recorded: mild and non-limiting adverse effect of fatigue
[1]; at 7 weeks, overall, listed as GVG
  eye exam: normal, and showed no change from baseline; also recorded: unchanged and within normal limits
[1]; week 1, dose figure not printed ('gram'), baseline TTS 39
  YGTSS total tic score (TTS): 29
[1]; week 7, baseline GAF 50
  Global Assessment of Functioning (GAF) score: 65
[2]
  inhibition of GABA uptake: inhibits GABA uptake
Brain GABA levels
  brain GABA levels after administration: remain substantially elevated for several days

## N[C@@H]1C=C[C@H](C(=O)O)C1 [compound 1, (1R,4S)-4-amino-cyclopent-2-ene-1-carboxylic acid]
[3]
  specificity constant as GABA-AT substrate relative to GABA: almost five times greater than that of GABA

## C=C1C[C@H](C(=O)O)C[C@@H]1N [Compound 2, (1S,3S)-3-amino-4-methylenyl-1-cyclopentanoic acid]
[3]; 2-mercaptoethanol added to the incubation mixture
  GABA-AT inactivation: no inactivation occurred
[3]; without 2-mercaptoethanol
  GABA-AT inactivation: inactivation of GABA-AT was observed
